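Exposure lasted 48 hours, with cells grown in 96-well plates and compounds tested at five concentrations. The concentration for 50% growth inhibition is given as GI50. TGI is the concentration that stops growth completely.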
What was measured:
Assay in all cases: NCI-60 cell line screen, 48 h
[1] = system: NCI-H23 lung
[2] = system: K-562 leukemia
[3] = system: SK-OV-3 ovarian
[4] = system: NCI-H522 lung
[5] = system: UO-31 renal
[6] = system: 786-0 renal
[7] = system: SK-MEL-2 melanoma
[8] = system: NCI-H226 lung
[9] = system: CAKI-1 renal
[10] = system: BT-549 breast

SMILES	GI50 [1]	TGI [1]	GI50 [2]	TGI [2]	GI50 [3]	TGI [3]	GI50 [4]	TGI [4]	GI50 [5]	TGI [5]	GI50 [6]	TGI [6]	GI50 [7]	TGI [7]	GI50 [8]	TGI [8]	GI50 [9]	TGI [9]	GI50 [10]	TGI [10]
CCCCCCCCCCCCNC(=O)[C@H]1CSC(c2cc3ccccc3s2)N1 (stereo not given in full)	1.92 µM	7.19 µM	0.717 µM	1.62 µM	4.16 µM	8.38 µM	5.11 µM	11.1 µM	4.16 µM	8.37 µM	4.6 µM	9.11 µM	1.96 µM	6.49 µM	3 µM	7.88 µM	2.09 µM	6.4 µM	1.01 µM	4.11 µM
COC(=O)C(Cc1cnc[nH]1)NC(=O)CNC(=O)CCCn1c(=O)c2c3ccccc3n(C)c2n2nnc(-c3ccccc3)c12 (stereo not given)	> 100 µM	> 100 µM	> 100 µM	> 100 µM	> 100 µM	> 100 µM	> 100 µM	> 100 µM	> 100 µM	> 100 µM	> 100 µM	> 100 µM	> 100 µM	> 100 µM	> 100 µM	> 100 µM	> 100 µM	> 100 µM	> 100 µM	> 100 µM

Source: PubChem BioAssay (NCI)
